{"source": "patent US11400107B2", "about": "“Cancer treatments” (NuCana plc, priority 2016, dated 2022)", "format_in_all_cases": "cell-based, human", "key": {"[1]": {"tested_on": "primary acute myeloid leukaemia (AML) blasts", "assay": "In vitro cytotoxicity assay (LD50) in primary acute myeloid leukaemia cells", "conditions": "for LD50: primary AML blasts, 48 h, concentration required to kill 50% of the tumour cells in culture", "description": "ProTide compounds, as defined herein, and the comparator ProTide compound NUC-1031 were assayed for their cytotoxic effects on primary cultures of acute myeloid leukaemia (AML) blasts. LD50 values (the concentration required to kill 50% of the tumour cells in culture) were calculated in respect of the ProTide compounds of the invention, and the parent compounds from which they are derived. […] The LD50 values of the ProTide compounds as defined herein (and their parent compounds) were compared with the comparator ProTide NUC-1031 and its parent compound gemcitabine.\nBone marrow samples were collected in ethylenediaminetetraacetic acid (EDTA) from newly diagnosed, previously untreated, acute myeloid leukaemia (AML) patients. AML blasts were enriched by density gradient centrifugation using Histopaque (Sigma, Poole, UK) and were subsequently maintained in Roswell Park Memorial Institute medium (RPMI) supplemented with 10% foetal bovine serum (FBS). Cells were treated with ProTide compounds (either as encompassed by the present invention, or the comparator ProTide NUC-1031) or with the ProTides' parent compounds at a range of experimental concentrations, and incubated for 48 h. All cultures were maintained at 37° C. in a 5% CO2 humidified atmosphere.\nCells were harvested and labelled with CD34-fluorescein isothiocyanate (FITC) (BD Biosciences, Buckingham, UK) and then resuspended in 200 μl of binding buffer containing 4 μl of annexin V labelled with allophycocyanin (APC) (eBioscience Ltd, Hatfield, UK). Apoptosis was quantified in the CD34^+ AML cells using an Accuri C6 flow cytometer (Becton Dickinson, CA, USA). At least 10,000 events were acquired and data were subsequently analysed using FlowJo software (Tree Star Inc., Ashland, Oreg., USA). All LD50 values (concentration of drug required to kill 50% of cells) were derived from the dose-response curves."}, "[2]": {"tested_on": "Lin^−/CD34^+/CD38^−/CD123^+ cancer stem cells in KG1a cells", "assay": "Immunophenotypic quantification of the leukaemic stem cell compartment in KG1a cells", "conditions": "for proportion of cancer stem cells as compared to non-stem cancer cells after treatment: 72 h; for selectivity for cancer stem cells as opposed to non-stem cancer cells (summary): summary statement of the description", "description": "The respective abilities of NUC-1031 and gemcitabine to target CSCs were investigated in the AML cell line KG1a.\nKG1a cells were cultured for 72 hours in the presence of a wide range of concentrations of each nucleoside analogue and their respective ProTides. Cells were then harvested and labelled with a cocktail of anti-lineage antibodies (PE-cy7), anti-CD34 (FITC), anti-CD38 (PE) and anti-CD123 (PERCP cy5). The sub-population expressing a leukaemic stem cell (LSC) phenotype were subsequently identified and were expressed as a percentage of all viable cells left in the culture. The percentages of stem cells remaining were then plotted on a dose-response graph and the proportion of cancer stem cells was compared across the various concentrations of ProTides and their respective parent compounds, in order to determine if they preferentially target cancer stem cells.\n(§1) The data obtained in these experiments were evaluated using one way ANOVA. All data was confirmed as Gaussian or a Gaussian approximation using the omnibus K2 test. LD50 values were calculated from the non-linear regression and line of best-fit analysis of the sigmoidal dose-response curves. All statistical analyses were performed using Graphpad Prism 6.0 software (Graphpad Software Inc., San Diego, Calif.)."}, "[3]": {"tested_on": "KG1a cells", "assay": "In vitro apoptosis / LD50 assay (Annexin V) in KG1a cells", "conditions": "for LD50: KG1a cells (FIG. 7A), 72 h", "description": "The acute myeloid leukaemia (AML) KG1a cell line was maintained in RPMI medium (Invitrogen, Paisley, UK) supplemented with 100 units/ml penicillin, 100 μg/ml streptomycin and 20% fetal calf serum. Cells were subsequently aliquoted (10^5 cells/100 μl) into 96-well plates and were incubated at 37° C. in a humidified 5% carbon dioxide atmosphere for 72 h in the presence of NUC-1031 or gemcitabine at concentrations that were experimentally determined for each compound. In addition, control cultures were carried out to which no drug was added. Cells were subsequently harvested by centrifugation and were analysed by flow cytometry using the Annexin V assay.\nCultured cells were harvested by centrifugation and then resuspended in 195 μl of calcium-rich buffer. Subsequently, 5 μl of Annexin V (Caltag Medsystems, Botolph Claydon, UK) was added to the cell suspension and cells were incubated in the dark for 10 mins prior to washing. Cells were finally resuspended in 190 μl of calcium-rich buffer together with 10 μl of propidium iodide. Apoptosis was assessed by dual-colour immunofluorescent flow cytometry as described previously. Subsequently LD50 values (the dose required to kill 50% of the cells in a culture) were calculated for each nucleoside analogue and ProTide.\nas §1"}}, "note": "Entries after “also recorded” stand apart in the source; their conditions may differ.", "data": [{"smiles": "CCCCCOC(=O)[C@H](C)NP(=O)(OC[C@H]1O[C@@H](n2cc(F)c(=O)[nH]c2=O)CC1O)Oc1cccc2ccccc12", "note": "(stereo partly shown) [CPF-581]", "values": [{"measurement": "LD50", "setting": "[1]", "result": "CPF 581 0.027 μM"}, {"measurement": "potency as compared to the respective parent compound (summary)", "setting": "[1]; summary statement of the description", "result": "greater potency"}, {"measurement": "low concentration at which the selective reduction of cancer stem cells was still observed", "setting": "[2]; KG1a cells", "result": "approximately 8×10^−8 M"}, {"measurement": "proportion of cancer stem cells as compared to non-stem cancer cells after treatment", "setting": "[2]; KG1a cells", "result": "reduction in the proportion of cancer stem cells"}, {"measurement": "selectivity for cancer stem cells as opposed to non-stem cancer cells (summary)", "setting": "[2]", "result": "selectively target for cancer stem cells; also recorded: high selectivity for cancer stem cells"}, {"measurement": "LD50", "setting": "[3]", "result": 0.027, "unit": "µM"}, {"measurement": "potency relative to FUDR (times more potent)", "setting": "[3]; from LD50 values", "result": "over 50 times"}]}, {"smiles": "O=c1[nH]c(=O)n([C@H]2C[C@H](O)[C@@H](CO)O2)cc1F", "note": "[FUDR]", "values": [{"measurement": "LD50", "setting": "[1]", "result": "FUDR 1.18 μM"}, {"measurement": "proportion of cancer stem cells as compared to non-stem cancer cells after treatment", "setting": "[2]; KG1a cells", "result": "reduction in the proportion of cancer stem cells"}, {"measurement": "LD50", "setting": "[3]", "result": 1.18, "unit": "µM"}]}, {"smiles": "C[C@H](NP(=O)(OC[C@H]1O[C@@H](n2cc(F)c(=O)[nH]c2=O)CC1O)Oc1cccc2ccccc12)C(=O)OCCC(C)(C)C", "note": "(stereo partly shown) [CPF-585]", "values": [{"measurement": "LD50", "setting": "[1]", "result": "CPF 585 0.79 μM"}, {"measurement": "proportion of cancer stem cells as compared to non-stem cancer cells after treatment", "setting": "[2]; KG1a cells", "result": "reduction in the proportion of cancer stem cells"}, {"measurement": "selectivity for cancer stem cells as opposed to non-stem cancer cells (summary)", "setting": "[2]", "result": "selectively target for cancer stem cells"}]}]}
